# Key:
# purple nutsedge = test: Test B pre/postemergence purple nutsedge; format: in vivo, Cyperus rotundus; conditions: for Nutsedge plant response rating: scale of 0 to 10 where 0 is no effect and 10 is complete control
# Procedure, shortened: (§1)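 Test chemicals in a non-phytotoxic solvent mixture with surfactant were sprayed preemergence onto planted seeds and postemergence onto plants 2 to 18 cm tall (1- to 4-leaf stage). After twelve to sixteen days in a greenhouse, injury was visually rated against untreated controls from 0 (no effect) to 10 (complete control).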
# pigweed = test: Test B pre/postemergence pigweed; format: in vivo, Amaranthus retroflexus; conditions: for Redroot pigweed plant response rating: scale of 0 to 10 where 0 is no effect and 10 is complete control
# Procedure, shortened: as §1
# surinam grass = test: Test B pre/postemergence surinam grass; format: in vivo, Brachiaria decumbens; conditions: for B. signalgrass plant response rating: scale of 0 to 10 where 0 is no effect and 10 is complete control
# Procedure, shortened: as §1
# bedstraw = test: Test B pre/postemergence bedstraw; format: in vivo, Galium aparine; conditions: for Bedstraw plant response rating: scale of 0 to 10 where 0 is no effect and 10 is complete control
# Procedure, shortened: as §1
# crabgrass = test: Test B pre/postemergence crabgrass; format: in vivo, Digitaria sanguinalis; conditions: for Crabgrass plant response rating: scale of 0 to 10 where 0 is no effect and 10 is complete control
# Procedure, shortened: as §1
# duck salad = test: Test B flood test duck salad; format: in vivo, Heteranthera limosa
# Procedure, shortened: (§2)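 Each value is a visual injury score relative to controls, with 10 meaning complete control and 0 no effect. Evaluation took place twelve to sixteen days after the 2-leaf-stage plants were treated and kept in the greenhouse.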
# giant foxtail = test: Test B pre/postemergence giant foxtail; format: in vivo, Setaria faberii; conditions: for Giant foxtail plant response rating: scale of 0 to 10 where 0 is no effect and 10 is complete control
# Procedure, shortened: as §1
# soybean = test: Test B pre/postemergence soybean; format: in vivo, Glycine max; conditions: for Soybean plant response rating: scale of 0 to 10 where 0 is no effect and 10 is complete control
# Procedure, shortened: as §1
# wild oat = test: Test B pre/postemergence wild oat; format: in vivo, Avena fatua; conditions: for Wild oats plant response rating: scale of 0 to 10 where 0 is no effect and 10 is complete control
# Procedure, shortened: as §1
# corn = test: Test B pre/postemergence corn; format: in vivo, Zea mays; conditions: for Corn plant response rating: scale of 0 to 10 where 0 is no effect and 10 is complete control
# Procedure, shortened: as §1
# rice = test: Test B flood test rice; format: in vivo, Oryza sativa
# Procedure, shortened: as §2
# blackgrass = test: Test B pre/postemergence blackgrass; format: in vivo, Alopecurus myosuroides; conditions: for Blackgrass plant response rating: scale of 0 to 10 where 0 is no effect and 10 is complete control
# Procedure, shortened: as §1
# sugar beet = test: Test B pre/postemergence sugar beet; format: in vivo, Beta vulgaris; conditions: for Sugarbeets plant response rating: scale of 0 to 10 where 0 is no effect and 10 is complete control
# Procedure, shortened: as §1
# morningglory = test: Test B pre/postemergence morningglory; format: in vivo, Ipomoea hederacea; conditions: for Morningglory plant response rating: scale of 0 to 10 where 0 is no effect and 10 is complete control
# Procedure, shortened: as §1
# cocklebur = test: Test B pre/postemergence cocklebur; format: in vivo, Xanthium strumarium; conditions: for Cocklebur plant response rating: scale of 0 to 10 where 0 is no effect and 10 is complete control
# Procedure, shortened: as §1
# smallflower flatsedge = test: Test B flood test smallflower flatsedge; format: in vivo, Cyperus difformis
# Procedure, shortened: as §2
# [1] = Postemergence, Rate 125 g/ha, scale 0 to 10, 0 is no effect, 10 is complete control
# [2] = Postemergence, Rate 250 g/ha, scale 0 to 10, 0 is no effect, 10 is complete control
# [3] = Preemergence, Rate 62 g/ha, scale 0 to 10 (0 no effect, 10 complete control)
# [4] = Rate 500 g/ha, Postemergence, scale 0 to 10, 0 no effect, 10 complete control
# [5] = Rate 62 g/ha, flood test species, Pre-emergence, visual evaluation after twelve to sixteen days
# [6] = Rate 125 g/ha, under heading Pre-emergence, flood test species, visual evaluation after twelve to sixteen days
# [7] = Rate 250 g/ha, Pre-emergence, flood-test species, scale 0 to 10, 0 is no effect, 10 is complete control
# [8] = Rate 500 g/ha, Pre-emergence, flood test species, scale 0 to 10 (0 no effect, 10 complete control)
structure (smiles),measurement,setting,value
CCOc1nc(C(F)(F)F)c(Cn2c(=O)on(C(=O)N(c3ccc(F)cc3)C(C)C)c2=O)s1 [Compound 381],"Plant response rating, Nutsedge",purple nutsedge; [1],0
same,"Plant response rating, Nutsedge",purple nutsedge; [2],0
same,"Plant response rating, Nutsedge",purple nutsedge; [3],0
same,Nutsedge plant response rating (0 to 10 scale),"purple nutsedge; Preemergence, Rate 125 g/ha",0
same,Nutsedge plant response rating,"purple nutsedge; Preemergence, Rate 250 g/ha",0
same,Nutsedge plant response rating,"purple nutsedge; Preemergence, Rate 500 g/ha",0
same,Nutsedge plant response rating,"purple nutsedge; Rate 62 g/ha, Postemergence",0
same,"Plant response rating, Nutsedge",purple nutsedge; [4],0
same,"Plant response rating, Redroot pigweed",pigweed; [1],0
same,"Plant response rating, Redroot pigweed",pigweed; [2],0
same,"Plant response rating, Redroot pigweed",pigweed; [3],0
same,Redroot pigweed plant response rating (0 to 10 scale),"pigweed; Preemergence, Rate 125 g/ha",0
same,Redroot pigweed plant response rating,"pigweed; Preemergence, Rate 250 g/ha",0
same,Redroot pigweed plant response rating,"pigweed; Preemergence, Rate 500 g/ha",0
same,Redroot pigweed plant response rating,"pigweed; Rate 62 g/ha, Postemergence",0
same,"Plant response rating, Redroot pigweed",pigweed; [4],2
same,"Plant response rating, B. signalgrass",surinam grass; [1],0
same,"Plant response rating, B. signalgrass",surinam grass; [2],0
same,"Plant response rating, B. signalgrass",surinam grass; [3],0
same,"B. signalgrass plant response rating (0 to 10 scale, 0 is no effect, 10 is complete control)","surinam grass; Preemergence, Rate 125 g/ha",0
same,B. signalgrass plant response rating,"surinam grass; Preemergence, Rate 250 g/ha",0
same,B. signalgrass plant response rating,"surinam grass; Preemergence, Rate 500 g/ha",0
same,B. signalgrass plant response rating,"surinam grass; Rate 62 g/ha, Postemergence",0
same,"Plant response rating, B. signalgrass",surinam grass; [4],0
same,"Plant response rating, Bedstraw",bedstraw; [1],0
same,"Plant response rating, Bedstraw",bedstraw; [2],0
same,"Plant response rating, Bedstraw",bedstraw; [3],0
same,Bedstraw plant response rating (0 to 10 scale),"bedstraw; Preemergence, Rate 125 g/ha",0
same,Bedstraw plant response rating,"bedstraw; Preemergence, Rate 250 g/ha",0
same,Bedstraw plant response rating,"bedstraw; Preemergence, Rate 500 g/ha",0
same,Bedstraw plant response rating,"bedstraw; Rate 62 g/ha, Postemergence",0
same,"Plant response rating, Bedstraw",bedstraw; [4],0
same,"Plant response rating, Crabgrass",crabgrass; [1],0
same,"Plant response rating, Crabgrass",crabgrass; [2],0
same,"Plant response rating, Crabgrass",crabgrass; [3],0
same,Crabgrass plant response rating (0 to 10 scale),"crabgrass; Preemergence, Rate 125 g/ha",0
same,Crabgrass plant response rating,"crabgrass; Preemergence, Rate 250 g/ha",3
same,Crabgrass plant response rating,"crabgrass; Preemergence, Rate 500 g/ha",9
same,Crabgrass plant response rating,"crabgrass; Rate 62 g/ha, Postemergence",0
same,"Plant response rating, Crabgrass",crabgrass; [4],0
same,"Plant response rating, Ducksalad (0 to 10 scale, 0 is no effect, 10 is complete control)",duck salad; [5],0
same,"Ducksalad plant response rating (0 to 10 scale, 0 is no effect, 10 is complete control)",duck salad; [6],0
same,Ducksalad plant response rating,duck salad; [7],0
same,Ducksalad plant response rating,duck salad; [8],0
same,"Plant response rating, Giant foxtail",giant foxtail; [1],0
same,"Plant response rating, Giant foxtail",giant foxtail; [2],0
same,"Plant response rating, Giant foxtail",giant foxtail; [3],0
same,Giant foxtail plant response rating (0 to 10 scale),"giant foxtail; Preemergence, Rate 125 g/ha",0
same,Giant foxtail plant response rating,"giant foxtail; Preemergence, Rate 250 g/ha",5
same,Giant foxtail plant response rating,"giant foxtail; Preemergence, Rate 500 g/ha",9
same,Giant foxtail plant response rating,"giant foxtail; Rate 62 g/ha, Postemergence",0
same,"Plant response rating, Giant foxtail",giant foxtail; [4],0
same,"Plant response rating, Soybean",soybean; [1],2
same,"Plant response rating, Soybean",soybean; [2],2
same,"Plant response rating, Soybean",soybean; [3],0
same,Soybean plant response rating (0 to 10 scale),"soybean; Preemergence, Rate 125 g/ha",0
same,Soybean plant response rating,"soybean; Preemergence, Rate 250 g/ha",0
same,Soybean plant response rating,"soybean; Preemergence, Rate 500 g/ha",0
same,Soybean plant response rating,"soybean; Rate 62 g/ha, Postemergence",1
same,"Plant response rating, Soybean",soybean; [4],2
same,"Plant response rating, Wild oats",wild oat; [1],0
same,"Plant response rating, Wild oats",wild oat; [2],0
same,"Plant response rating, Wild oats",wild oat; [3],0
same,Wild oats plant response rating (0 to 10 scale),"wild oat; Preemergence, Rate 125 g/ha",0
same,Wild oats plant response rating,"wild oat; Preemergence, Rate 250 g/ha",0
same,Wild oats plant response rating,"wild oat; Preemergence, Rate 500 g/ha",0
same,Wild oats plant response rating,"wild oat; Rate 62 g/ha, Postemergence",0
same,"Plant response rating, Wild oats",wild oat; [4],0
same,"Plant response rating, Corn",corn; [1],0
same,"Plant response rating, Corn",corn; [2],0
same,"Plant response rating, Corn",corn; [3],0
same,Corn plant response rating (0 to 10 scale),"corn; Preemergence, Rate 125 g/ha",0
same,Corn plant response rating,"corn; Preemergence, Rate 250 g/ha",0
same,Corn plant response rating,"corn; Preemergence, Rate 500 g/ha",2
same,Corn plant response rating,"corn; Rate 62 g/ha, Postemergence",0
same,"Plant response rating, Corn",corn; [4],0
same,"Plant response rating, Rice (0 to 10 scale, 0 is no effect, 10 is complete control)",rice; [5],0
same,"Rice plant response rating (0 to 10 scale, 0 is no effect, 10 is complete control)",rice; [6],0
same,Rice plant response rating,rice; [7],0
same,Rice plant response rating,rice; [8],0
same,"Plant response rating, Blackgrass",blackgrass; [1],0
same,"Plant response rating, Blackgrass",blackgrass; [2],0
same,"Plant response rating, Blackgrass",blackgrass; [3],0
same,Blackgrass plant response rating (0 to 10 scale),"blackgrass; Preemergence, Rate 125 g/ha",0
same,Blackgrass plant response rating,"blackgrass; Preemergence, Rate 250 g/ha",0
same,Blackgrass plant response rating,"blackgrass; Preemergence, Rate 500 g/ha",2
same,Blackgrass plant response rating,"blackgrass; Rate 62 g/ha, Postemergence",0
same,"Plant response rating, Blackgrass",blackgrass; [4],0
same,"Plant response rating, Sugarbeets",sugar beet; [1],0
same,"Plant response rating, Sugarbeets",sugar beet; [2],0
same,"Plant response rating, Sugarbeets",sugar beet; [3],0
same,Sugarbeets plant response rating (0 to 10 scale),"sugar beet; Preemergence, Rate 125 g/ha",0
same,Sugarbeets plant response rating,"sugar beet; Preemergence, Rate 250 g/ha",0
same,Sugarbeets plant response rating,"sugar beet; Preemergence, Rate 500 g/ha",0
same,Sugarbeets plant response rating,"sugar beet; Rate 62 g/ha, Postemergence",0
same,"Plant response rating, Sugarbeets",sugar beet; [4],0
same,"Plant response rating, Morningglory",morningglory; [1],2
same,"Plant response rating, Morningglory",morningglory; [2],2
same,"Plant response rating, Morningglory",morningglory; [3],0
same,Morningglory plant response rating (0 to 10 scale),"morningglory; Preemergence, Rate 125 g/ha",0
same,Morningglory plant response rating,"morningglory; Preemergence, Rate 250 g/ha",0
same,Morningglory plant response rating,"morningglory; Preemergence, Rate 500 g/ha",0
same,Morningglory plant response rating,"morningglory; Rate 62 g/ha, Postemergence",2
same,"Plant response rating, Morningglory",morningglory; [4],7
same,"Plant response rating, Cocklebur",cocklebur; [1],0
same,"Plant response rating, Cocklebur",cocklebur; [2],0
same,"Plant response rating, Cocklebur",cocklebur; [3],0
same,Cocklebur plant response rating (0 to 10 scale),"cocklebur; Preemergence, Rate 125 g/ha",0
same,Cocklebur plant response rating,"cocklebur; Preemergence, Rate 250 g/ha",0
same,Cocklebur plant response rating,"cocklebur; Preemergence, Rate 500 g/ha",0
same,Cocklebur plant response rating,"cocklebur; Rate 62 g/ha, Postemergence",0
same,"Plant response rating, Cocklebur",cocklebur; [4],0
same,"Plant response rating, S. Flatsedge (0 to 10 scale, 0 is no effect, 10 is complete control)",smallflower flatsedge; [5],0
same,"S. Flatsedge plant response rating (0 to 10 scale, 0 is no effect, 10 is complete control)",smallflower flatsedge; [6],0
same,S. Flatsedge plant response rating,smallflower flatsedge; [7],0
same,S. Flatsedge plant response rating,smallflower flatsedge; [8],0

# Reference: US6737383B1, “Herbicidal oxadiazolidines” (priority 1999, dated 2004)
